Source: patent publication EP4755888A1 (ILAb Co., Ltd., priority 2023, dated 2025)
Values belong to the compound of their own block, whether it stands above or below them.

Target: PD-1/PD-L1 (Homo sapiens, UniProt Q9NZQ7)
Experiment: TR-FRET PD-1/PD-L1 binding inhibition at the molecular level (free proteins)
Settings: Tag1-PD-L1 and Tag2-PD-1 proteins, twelve concentrations from 200 nM, 2 hours at room temperature, read-out: FRET assay (IC50)
Procedure, shortened: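 HTRF read-out at 665/620 nm after 2 h at room temperature. Detection used anti-Tag1 Eu cryptate plus anti-Tag2 XL665 antibodies. Tagged PD-L1 and PD-1 proteins were pre-mixed with compound across twelve […] 1:2 dilutions starting at 200 nM.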

Chain of PD-1/PD-L1 (Q9NZQ7 19-238 limits assumed): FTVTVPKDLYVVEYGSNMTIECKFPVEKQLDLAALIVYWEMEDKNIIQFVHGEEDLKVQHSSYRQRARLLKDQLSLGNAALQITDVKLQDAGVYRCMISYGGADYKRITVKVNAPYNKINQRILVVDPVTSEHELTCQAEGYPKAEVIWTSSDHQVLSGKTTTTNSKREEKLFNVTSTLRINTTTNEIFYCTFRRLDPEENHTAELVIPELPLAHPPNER

Structure (SMILES): Cc1c(NC(=O)c2ccc(CNCCO)cn2)cccc1-c1cccc(NC(=O)c2cc3n(n2)CCCC3NCCO)c1C (centres unmarked) [Compound 74]
IC50: < 10 nM

Structure (SMILES): Cc1c(NC(=O)c2ccc(CNCCO)cn2)cccc1-c1cccc(NC(=O)c2cc3n(n2)CCCC3N2CCC(O)CC2)c1C (centres unmarked) [Compound 78, N-(3'-(5-(((2-hydroxyethyl)amino)methyl)picolinamido)-2,2'-dimethyl-[1,1'-biphenyl]-3-yl)-4-(4-hydroxypiperidin-1-yl)-4,5,6,7-tetrahydropyrazolo[1,5-a]pyridine-2-carboxamide]
IC50: < 10 nM

Structure (SMILES): Cc1c(NC(=O)c2ccc(CNCCO)cn2)cccc1-c1cccc(NC(=O)c2cc3n(n2)CCCC3N2CCC(C(=O)O)CC2)c1C (centres unmarked) [Compound 79, 1-(2-((3'-(5-(((2-hydroxyethyl)amino)methyl)picolinamido)-2,2'-dimethyl-[1,1'-biphenyl]-3-yl)carbamoyl)-4,5,6,7-tetrahydropyrazolo[1,5-a]pyridin-4-yl)piperidine-4-carboxylic acid]
IC50: < 10 nM

Structure (SMILES): Cc1c(NC(=O)c2ccc(CNCCO)cn2)cccc1-c1cccc(NC(=O)c2cc3n(n2)CCCC3NC(C)(C)C(=O)O)c1C (centres unmarked) [Compound 80, 2-((2-((3'-(5-(((2-hydroxyethyl)amino)methyl)picolinamido)-2,2'-dimethyl-[1,1'-biphenyl]-3-yl)carbamoyl)-4,5,6,7-tetrahydropyrazolo[1,5-a]pyridin-4-yl)amino)-2-methylpropanoic acid]
IC50: < 10 nM

Structure (SMILES): O=C(Nc1cccc(-c2cccc(NC(=O)c3cc4n(n3)CCCC4O)c2Cl)c1Cl)c1ccc(CNCCO)cn1 (centres unmarked) [Compound 81, N-(2,2'-dichloro-3'-(5-(((2-hydroxyethyl)amino)methyl)picolinamido)-[1,1'-biphenyl]-3-yl)-4-hydroxy-4,5,6,7-tetrahydropyrazolo[1,5-a]pyridine-2-carboxamide]
IC50: < 10 nM

Structure (SMILES): CC(=O)NCCNC1CCCn2nc(C(=O)Nc3cccc(-c4cccc(NC(=O)c5ccc(CNCCO)cn5)c4Cl)c3Cl)cc21 (centres unmarked) [Compound 82, 4-((2-acetamidoethyl)amino)-N-(2,2'-dichloro-3'-(5-(((2-hydroxyethyl)amino)methyl)picolinamido)-[1,1'-biphenyl]-3-yl)-4,5,6,7-tetrahydropyrazolo[1,5-a]pyridine-2-carboxamide]
IC50: < 10 nM

Structure (SMILES): O=C(Nc1cccc(-c2cccc(NC(=O)c3cc4n(n3)CCCC4NCCO)c2Cl)c1Cl)c1ccc(CNCCO)cn1 (centres unmarked) [Compound 83, N-(2,2'-dichloro-3'-(5-(((2-hydroxyethyl)amino)methyl)picolinamido)-[1,1'-biphenyl]-3-yl)-4-((2-hydroxyethyl)amino)-4,5,6,7-tetrahydropyrazolo[1,5-a]pyridine-2-carboxamide]
IC50: < 10 nM

Structure (SMILES): O=C(Nc1cccc(-c2cccc(NC(=O)c3cc4n(n3)CCCC4N3CC[C@@H](O)C3)c2Cl)c1Cl)c1ccc(CNCCO)cn1 (stereo partly drawn) [Compound 85, N-(2,2'-dichloro-3'-(5-(((2-hydroxyethyl)amino)methyl)picolinamido)-[1,1'-biphenyl]-3-yl)-4-((R)-3-hydroxypyrrolidin-1-yl)-4,5,6,7-tetrahydropyrazolo[1,5-a]pyridine-2-carboxamide]
IC50: < 10 nM

Structure (SMILES): O=C(Nc1cccc(-c2cccc(NC(=O)c3cc4n(n3)CCCC4N3CC[C@@H](C(=O)O)C3)c2Cl)c1Cl)c1ccc(CNCCO)cn1 (stereo partly drawn) [Compound 86, (3R)-1-(2-((2,2'-dichloro-3'-(5-(((2-hydroxyethyl)amino)methyl)picolinamido)-[1,1'-biphenyl]-3-yl)carbamoyl)-4,5,6,7-tetrahydropyrazolo[1,5-a]pyridin-4-yl)pyrrolidine-3-carboxylic acid]
IC50: < 10 nM

The remaining lines, values ahead:

IC50: < 10 nM
Structure (SMILES): CC(=O)NCCNC1CCCn2nc(C(=O)Nc3cccc(-c4cccc(-c5nc6cc(CN7CC[C@@H](C(=O)O)C7)cc(C#N)c6o5)c4Cl)c3Cl)cc21 (stereo partly drawn) [Compound 69, (3R)-1-((2-(3'-(4-((2-acetamidoethyl)amino)-4,5,6,7-tetrahydropyrazolo[1,5-a]pyridine-2-carboxamido)-2,2'-dichloro-[1,1'-biphenyl]-3-yl)-7-cyanobenzo[d]oxazol-5-yl)methyl)pyrrolidine-3-carboxylic acid]

IC50: < 10 nM
Structure (SMILES): N#Cc1cc(CN2CC[C@@H](C(=O)O)C2)cc2nc(-c3cccc(-c4cccc(NC(=O)c5cc6n(n5)CCCC6NCCO)c4Cl)c3Cl)oc12 (stereo partly drawn) [Compound 70, (3R)-1-((7-cyano-2-(2,2'-dichloro-3'-(4-((2-hydroxyethyl)amino)-4,5,6,7-tetrahydropyrazolo[1,5-a]pyridine-2-carboxamido)-[1,1'-biphenyl]-3-yl)benzo[d]oxazol-5-yl)methyl)pyrrolidine-3-carboxylic acid]

IC50: < 10 nM
Structure (SMILES): Cc1c(NC(=O)c2ccc(CNCCO)cn2)cccc1-c1cccc(NC(=O)c2cc3n(n2)CCCC3O)c1C (centres unmarked) [Compound 71, 4-hydroxy-N-(3'-(5-(((2-hydroxyethyl)amino)methyl)picolinamido)-2,2'-dimethyl-[1,1'-biphenyl]-3-yl)-4,5,6,7-tetrahydropyrazolo[1,5-a]pyridine-2-carboxamide]

IC50: < 10 nM
Structure (SMILES): CC(=O)NCCNC1CCCn2nc(C(=O)Nc3cccc(-c4cccc(NC(=O)c5ccc(CNCCO)cn5)c4C)c3C)cc21 (centres unmarked) [Compound 72, 4-((2-acetamidoethyl)amino)-N-(3'-(5-(((2-hydroxyethyl)amino)methyl)picolinamido)-2,2'-dimethyl-[1,1'-biphenyl]-3-yl)-4,5,6,7-tetrahydropyrazolo[1,5-a]pyridine-2-carboxamide]

IC50: < 10 nM
Structure (SMILES): Cc1c(NC(=O)c2ccc(CNCCO)cn2)cccc1-c1cccc(NC(=O)c2cc3n(n2)CCCC3N2CC[C@@H](O)C2)c1C (stereo partly drawn) [Compound 73, N-(3'-(5-(((2-hydroxyethyl)amino)methyl)picolinamido)-2,2'-dimethyl-[1,1'-biphenyl]-3-yl)-4-((R)-3-hydroxypyrrolidin-1-yl)-4,5,6,7-tetrahydropyrazolo[1,5-a]pyridine-2-carboxamide]

IC50: < 10 nM
Structure (SMILES): Cc1c(NC(=O)c2ccc(CNCCO)cn2)cccc1-c1cccc(NC(=O)c2cc3n(n2)CCCC3NCC2CCC(=O)N2)c1C (centres unmarked) [Compound 75, N-(3'-(5-(((2-hydroxyethyl)amino)methyl)picolinamido)-2,2'-dimethyl-[1,1'-biphenyl]-3-yl)-4-(((5-oxopyrrolidin-2-yl)methyl)amino)-4,5,6,7-tetrahydropyrazolo[1,5-a]pyridine-2-carboxamide]

IC50: < 10 nM
Structure (SMILES): Cc1c(NC(=O)c2ccc(CNCCO)cn2)cccc1-c1cccc(NC(=O)c2cc3n(n2)CCCC3NCC(=O)O)c1C (centres unmarked) [Compound 76, 2-((2-((3'-(5-(((2-hydroxyethyl)amino)methyl)picolinamido)-2,2'-dimethyl-[1,1'-biphenyl]-3-yl)carbamoyl)-4,5,6,7-tetrahydropyrazolo[1,5-a]pyridin-4-yl)amino)acetic acid]

IC50: < 10 nM
Structure (SMILES): Cc1c(NC(=O)c2ccc(CNCCO)cn2)cccc1-c1cccc(NC(=O)c2cc3n(n2)CCCC3N2CC[C@@H](C(=O)O)C2)c1C (stereo partly drawn) [Compound 77, (3R)-1-(2-((3'-(5-(((2-hydroxyethyl)amino)methyl)picolinamido)-2,2'-dimethyl-[1,1'-biphenyl]-3-yl)carbamoyl)-4,5,6,7-tetrahydropyrazolo[1,5-a]pyridin-4-yl)pyrrolidine-3-carboxylic acid]
